Experimental data reported in US6737383B1, “Herbicidal oxadiazolidines” (priority 1999, dated 2004).

Key:
giant foxtail = experiment: Test B pre/postemergence giant foxtail; assay type: in vivo, Setaria faberii
Method in brief: (§1)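 Response is a visual 0-to-10 score relative to untreated plants, where 0 means no effect and 10 means complete control, taken twelve to sixteen days after application. Treatments went onto soil at planting and onto foliage of 1- to 4-leaf plants, using a surfactant-containing non-phytotoxic solvent.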

morningglory = experiment: Test B pre/postemergence morningglory; assay type: in vivo, Ipomoea hederacea
Method in brief: as §1

pigweed = experiment: Test B pre/postemergence pigweed; assay type: in vivo, Amaranthus retroflexus
Method in brief: as §1

rape = experiment: Test B pre/postemergence rape; assay type: in vivo, Brassica napus
Method in brief: as §1

[1] = Postemergence, Rate 125 g/ha, scale of 0 to 10 where 0 is no effect and 10 is complete control
[2] = Postemergence, Rate 250 g/ha, scale of 0 to 10, 0 is no effect, 10 is complete control
[3] = Postemergence, Rate 1000 g/ha, scale 0 to 10 (0 no effect, 10 complete control)
[4] = Preemergence, Rate 125 g/ha, scale of 0 to 10 where 0 is no effect and 10 is complete control
[5] = Preemergence, Rate 250 g/ha, scale 0 to 10 (0 no effect, 10 complete control)
[6] = Preemergence, Rate 500 g/ha, scale of 0 to 10 where 0 is no effect and 10 is complete control
[7] = Rate 500 g/ha, Postemergence, scale 0 to 10, 0 is no effect, 10 is complete control
[8] = Rate 1000 g/ha, Preemergence, scale 0 to 10 (0 no effect, 10 complete control)
[9] = Postemergence, Rate 250 g/ha, scale 0 to 10
[10] = Postemergence, Rate 500 g/ha, scale of 0 to 10 where 0 is no effect and 10 is complete control
[11] = Preemergence, Rate 250 g/ha, scale 0 to 10, 0 is no effect, 10 is complete control
[12] = Preemergence, Rate 500 g/ha, scale 0 to 10, 0 is no effect, 10 is complete control
[13] = Rate 125 g/ha, Postemergence, scale 0 to 10, 0 is no effect, 10 is complete control
[14] = Preemergence, Rate 62 g/ha, scale 0 to 10 (0 no effect, 10 complete control)
[15] = Preemergence, Rate 125 g/ha, 0 is no effect, 10 is complete control
[16] = Preemergence, Rate 500 g/ha, scale 0 to 10 (0 no effect, 10 complete control)
[17] = Rate 62 g/ha, Postemergence, scale of 0 to 10 where 0 is no effect and 10 is complete control
[18] = Rate 250 g/ha, Postemergence, scale 0 to 10, 0 is no effect, 10 is complete control
[19] = Rate 500 g/ha, Postemergence, scale 0 to 10

SMILES: COP(=O)(CCn1c(=O)on(C(=O)N(c2ccc(F)cc2)C(C)C)c1=O)OC [Compound 662]
- Giant foxtail plant response rating (giant foxtail; [1]): 0
- Giant foxtail plant response rating (giant foxtail; [2]): 2
- Giant foxtail plant response rating (giant foxtail; [3]): 8
- Giant foxtail plant response rating (giant foxtail; [4]): 7
- Plant response rating, Giant foxtail (giant foxtail; [5]): 9
- Plant response rating, Giant foxtail (giant foxtail; [6]): 10
- Giant foxtail plant response rating (giant foxtail; [7]): 5
- Plant response rating, Giant foxtail (giant foxtail; [8]): 10
- Morningglory plant response rating (morningglory; [1]): 7
- Morningglory plant response rating (morningglory; [2]): 9
- Morningglory plant response rating (morningglory; [3]): 7
- Morningglory plant response rating (morningglory; [4]): 0
- Plant response rating, Morningglory (morningglory; [5]): 0
- Plant response rating, Morningglory (morningglory; [6]): 1
- Morningglory plant response rating (morningglory; [7]): 7
- Plant response rating, Morningglory (morningglory; [8]): 3
- Redroot pigweed plant response rating (pigweed; [1]): 0
- Redroot pigweed plant response rating (pigweed; [3]): 0
- Redroot pigweed plant response rating (pigweed; [4]): 0
- Plant response rating, Redroot pigweed (pigweed; [5]): 3
- Plant response rating, Redroot pigweed (pigweed; [6]): 7
- Redroot pigweed plant response rating (pigweed; [7]): 0
- Plant response rating, Redroot pigweed (pigweed; [8]): 7
- Rape plant response rating (rape; [1]): 0
- Rape plant response rating (rape; [3]): 0
- Rape plant response rating (rape; [4]): 0
- Plant response rating, Rape (rape; [5]): 0
- Plant response rating, Rape (rape; [6]): 0
- Rape plant response rating (rape; [7]): 0
- Plant response rating, Rape (rape; [8]): 4

SMILES: CCOP(=O)(Cn1c(=O)on(C(=O)N(c2ccccc2)C(C)C)c1=O)OCC [Compound 447]
- Giant foxtail plant response rating (giant foxtail; [9]): 0
- Giant foxtail plant response rating (giant foxtail; [10]): 0
- Giant foxtail plant response rating (giant foxtail; [3]): 0
- Plant response rating, Giant foxtail (giant foxtail; [4]): 3
- Giant foxtail plant response rating (giant foxtail; [11]): 7
- Giant foxtail plant response rating (giant foxtail; [12]): 8
- Giant foxtail plant response rating (giant foxtail; [13]): 0
- Plant response rating, Giant foxtail (giant foxtail; [8]): 10
- Morningglory plant response rating (morningglory; [9]): 4
- Morningglory plant response rating (morningglory; [10]): 7
- Morningglory plant response rating (morningglory; [3]): 10
- Plant response rating, Morningglory (morningglory; [4]): 0
- Morningglory plant response rating (morningglory; [11]): 0
- Morningglory plant response rating (morningglory; [12]): 0
- Morningglory plant response rating (morningglory; [13]): 2
- Plant response rating, Morningglory (morningglory; [8]): 2
- Redroot pigweed plant response rating (pigweed; [9]): 0
- Redroot pigweed plant response rating (pigweed; [10]): 0
- Redroot pigweed plant response rating (pigweed; [3]): 0
- Plant response rating, Redroot pigweed (pigweed; [4]): 0
- Redroot pigweed plant response rating (pigweed; [11]): 0
- Redroot pigweed plant response rating (pigweed; [12]): 0
- Redroot pigweed plant response rating (pigweed; [13]): 0
- Plant response rating, Redroot pigweed (pigweed; [8]): 0
- Rape plant response rating (rape; [9]): 0
- Rape plant response rating (rape; [10]): 0
- Rape plant response rating (rape; [3]): 0
- Plant response rating, Rape (rape; [4]): 0
- Rape plant response rating (rape; [11]): 0
- Rape plant response rating (rape; [12]): 0
- Rape plant response rating (rape; [13]): 0
- Plant response rating, Rape (rape; [8]): 0

SMILES: C=CCn1c(=O)on(C(=O)N(c2ccc(F)cc2F)C2CC2)c1=O [Compound 127]
- Giant foxtail plant response rating (giant foxtail; [1]): 0
- Giant foxtail plant response rating (giant foxtail; [3]): 0
- Giant foxtail plant response rating (giant foxtail; [14]): 0
- Giant foxtail plant response rating (0 to 10 scale) (giant foxtail; [15]): 0
- Giant foxtail plant response rating (giant foxtail; [11]): 2
- Giant foxtail plant response rating (giant foxtail; [16]): 4
- Giant foxtail plant response rating (giant foxtail; [17]): 0
- Plant response rating, Giant foxtail (giant foxtail; [18]): 0
- Giant foxtail plant response rating (giant foxtail; [19]): 0
- Plant response rating, Giant foxtail (giant foxtail; [8]): 9
- Morningglory plant response rating (morningglory; [1]): 0
- Morningglory plant response rating (morningglory; [3]): 0
- Morningglory plant response rating (morningglory; [14]): 0
- Morningglory plant response rating (0 to 10 scale) (morningglory; [15]): 0
- Morningglory plant response rating (morningglory; [11]): 0
- Morningglory plant response rating (morningglory; [16]): 0
- Morningglory plant response rating (morningglory; [17]): 0
- Plant response rating, Morningglory (morningglory; [18]): 0
- Morningglory plant response rating (morningglory; [19]): 0
- Plant response rating, Morningglory (morningglory; [8]): 0
- Redroot pigweed plant response rating (pigweed; [1]): 0
- Redroot pigweed plant response rating (pigweed; [3]): 0
- Redroot pigweed plant response rating (pigweed; [14]): 0
- Redroot pigweed plant response rating (0 to 10 scale) (pigweed; [15]): 0
- Redroot pigweed plant response rating (pigweed; [11]): 3
- Redroot pigweed plant response rating (pigweed; [16]): 7
- Redroot pigweed plant response rating (pigweed; [17]): 0
- Plant response rating, Redroot pigweed (pigweed; [18]): 0
- Redroot pigweed plant response rating (pigweed; [19]): 0
- Plant response rating, Redroot pigweed (pigweed; [8]): 10
- Rape plant response rating (rape; [1]): 0
- Rape plant response rating (rape; [3]): 0
- Rape plant response rating (rape; [14]): 0
- Rape plant response rating (0 to 10 scale) (rape; [15]): 0
- Rape plant response rating (rape; [11]): 0
- Rape plant response rating (rape; [16]): 0
- Rape plant response rating (rape; [17]): 0
- Plant response rating, Rape (rape; [18]): 0
- Rape plant response rating (rape; [19]): 0
- Plant response rating, Rape (rape; [8]): 0
